Source: article PMC3823026, “Protein–Protein Interaction Regulates the Direction of Catalysis and Electron Transfer in a Redox Enzyme Complex” (Journal of the American Chemical Society, 2013)

Experiments:
Assay type in all cases: biochemical
[1] = molecular target: T1, CymA (Shewanella oneidensis, UniProt Q8E8S0); test: cyclic voltammetry, dithionite as reductant; conditions: 1 mM dithionite, pH 7.4, 21 °C, no Fcc3
T1 construct: full-length recombinant tetraheme CymA (24 kDa), isolated from MR-1, reconstituted in POPC/cardiolipin membrane, no Fcc3
T1 sequence (Q8E8S0 1-187): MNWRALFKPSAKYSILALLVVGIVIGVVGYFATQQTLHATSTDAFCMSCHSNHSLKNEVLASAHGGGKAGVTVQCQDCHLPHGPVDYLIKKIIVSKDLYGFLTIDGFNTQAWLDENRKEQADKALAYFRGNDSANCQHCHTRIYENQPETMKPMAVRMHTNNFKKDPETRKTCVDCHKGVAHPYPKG

[2] = molecular target: T1, CymA; test: cyclic voltammetry, catalytic oxidation current with dithionite (menaquinone reduction); conditions: 1 mM dithionite, 1% (w/w) MQ-7, pH 7.4, 21 °C
[3] = molecular target: T2, CymA-Fcc3 complex (Shewanella oneidensis, UniProt Q8E8S0); test: cyclic voltammetry, catalytic fumarate reduction current on membrane-modified gold electrode; conditions: 1 mM fumarate, 1% (w/w) MQ-7, pH 7.4, 21 °C; competitive quinol-site inhibitor
T2 construct: isolated from MR-1; with Fumarate reductase (cytochrome), flavocytochrome c3
T2 sequence (Q8E8S0 1-187): T1 sequence (Q8E8S0 1-187)
T2 sequence (P83223 26-596 partner): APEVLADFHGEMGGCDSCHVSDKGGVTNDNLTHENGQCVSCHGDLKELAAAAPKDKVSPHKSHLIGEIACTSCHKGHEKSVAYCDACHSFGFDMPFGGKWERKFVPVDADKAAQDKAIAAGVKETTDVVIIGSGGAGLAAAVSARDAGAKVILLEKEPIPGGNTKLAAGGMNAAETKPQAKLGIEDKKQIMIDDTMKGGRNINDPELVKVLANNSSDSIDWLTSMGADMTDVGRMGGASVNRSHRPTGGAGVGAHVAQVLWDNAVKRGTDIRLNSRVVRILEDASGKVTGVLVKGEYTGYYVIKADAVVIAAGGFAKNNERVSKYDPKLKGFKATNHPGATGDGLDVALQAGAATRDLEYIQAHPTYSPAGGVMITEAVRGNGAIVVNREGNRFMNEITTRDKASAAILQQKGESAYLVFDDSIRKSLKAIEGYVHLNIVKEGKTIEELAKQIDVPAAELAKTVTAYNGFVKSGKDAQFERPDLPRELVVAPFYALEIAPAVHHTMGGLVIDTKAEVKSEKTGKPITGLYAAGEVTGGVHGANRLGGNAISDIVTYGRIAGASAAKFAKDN

[4] = molecular target: T3, Fcc3 (Shewanella oneidensis, UniProt P83223); test: cyclic voltammetry, catalytic reduction current; conditions: 1 mM fumarate, electrons from MQ-7 via CymA, pH 7.4, 21 °C
T3 construct: gene fccA; monomer in solution; with Membrane anchored tetraheme cytochrome c CymA
T3 sequence (P83223 26-596): T2 sequence (P83223 26-596 partner)
T3 sequence (Q8E8S0 1-187 partner): T1 sequence (Q8E8S0 1-187)

[5] = molecular target: T2, CymA-Fcc3 complex; test: cyclic voltammetry, membrane-modified gold electrode, MQ-7 content varied; conditions: fumarate 1 mM as acceptor, pH 7.4, 21 °C; MQ-7 in membrane as % (w/w); Michaelis-Menten fit, constant not given

CC(C)=CCC/C(C)=C/CC/C(C)=C/CC/C(C)=C/CC/C(C)=C/CC/C(C)=C/CC/C(C)=C/CC1=C(C)C(=O)c2ccccc2C1=O [Menaquinone-7]
cyclic voltammetry, dithionite as reductant [1]: CymA is only able to reduce MQ-7 in the absence of Fcc3

CCCCCCCc1cc(O)c2ccccc2[n+]1[O-] [2-n-heptyl-4-hydroxyquinoline N-oxide, 2-n-Heptyl-4-hydroxyquinoline N-oxide]
inhibition at 10 μM [2]: a catalytic oxidation signal appears that is inhibited by addition of HQNO
inhibition at 10 μM [3]: The addition of HQNO inhibited catalytic fumarate reduction (Figure 2B)

O=C(O)/C=C/C(=O)O [fumarate]
cyclic voltammetry, catalytic reduction current [4]: addition of fumarate had a large effect on the appearance of the CV

CC(C)=CCC/C(C)=C/CC/C(C)=C/CC/C(C)=C/CC/C(C)=C/CC/C(C)=C/CC/C(C)=C/Cc1c(C)c(O)c2ccccc2c1O [menaquinol-7]
cyclic voltammetry, membrane-modified gold electrode, MQ-7 content varied [5]: the CymA-Fcc3 complex is able to oxidize MQ-7 in SSMs
